Common to all, as to type: cell-based
In one experiment the test system is E. coli ATCC 10596. As to the kind of experiment: MIC by broth microdilution, E. coli. As to conditions: Escherichia coli, read-out: E. coli ATCC 10536 MIC. Summed up:
(§1)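 Overnight cultures diluted to ~5×10^5 cfu/mL final; S. aureus in TSB and CAMHB, E. coli in LB and CAMHB, zinc sulphate to 50 μM final as required; two-fold serial dilutions. MIC = lowest concentration with no growth by OD600 after 24 h, 37° C, 200 rpm. MBC by Miles-Misra drop-plate viability count.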

In the next experiment the test system is S. uberis ATCC 19436. As to the kind of experiment: MIC by broth microdilution, S. uberis. The following applies: Streptococcus uberis, read-out: S. uberis ATCC 19436 MIC. Summed up: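 Streptococcus uberis ATCC 19436 was tested in Todd Hewitt Broth by broth microdilution in 96-well flat bottom plates, in biological triplicate. Overnight cells were diluted to OD600 of approximately 0.025, giving about 5×10^5 cfu/mL in the wells. Compounds were serially diluted two-fold to 200 μl, incubated 24 h at 37° C. and 200 rpm, and the MIC was taken from OD600.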

The test system of another experiment is S. aureus ATCC 6538. As to the kind of experiment: MIC by broth microdilution, S. aureus. The following applies: Staphylococcus aureus, read-out: S. aureus ATCC 6538 MIC. In outline:
as §1

Where [1] appears, read: ATCC 10536 / ATCC 10596, No Zinc.
[2] abbreviates: ATCC 10536 / ATCC 10596, Zinc (50 μM).

In brackets after ≈: the same amount, converted by molar mass. Like-named read-outs stand apart in the source and are kept apart here.

The source of these data is US11691949B2, “Quinoline sulfonamide compounds and their use as antibacterial agents” (OTAGO INNOVATION LIMITED, priority 2017, dated 2023).

On to `O=S(=O)(Nc1cccc2ccc(CNCC3CCCCC3)nc12)c1ccc(C(F)(F)F)cc1` [ZDR406, N-(2-(((Cyclohexylmethyl)amino)methyl)quinolin-8-yl)-4-(trifluoromethyl)benzenesulfonamide], for which the MIC with E. coli ATCC 10596 (setting [1]) is 64 µg/mL (≈ 134 µM); in the experiment with E. coli ATCC 10596 (setting [2]), 256 µg/mL (≈ 536 µM); in the experiment on S. uberis ATCC 19436 (ATCC19436, No Zinc) it was 16 µg/mL (≈ 33.5 µM); in the experiment with S. uberis ATCC 19436 (ATCC19436, Zinc (50 μM)), 0.125 µg/mL (≈ 0.262 µM); in the experiment on S. aureus ATCC 6538 (ATCC6538, No Zinc), 32 µg/mL (≈ 67 µM); in the experiment with S. aureus ATCC 6538 (ATCC6538, Zinc (50 μM)) it was 128 µg/mL (≈ 268 µM).

In the case of `O=S(=O)(Nc1cccc2ccc(CN3CCCC3)nc12)c1ccc(C(F)(F)F)cc1` [ZDR407, N-(2-(Pyrrolidin-1-ylmethyl)quinolin-8-yl)-4-(trifluoromethyl)benzenesulfonamide], the MIC in the experiment on E. coli ATCC 10596 (setting [1]) came to 256 µg/mL (≈ 588 µM); with E. coli ATCC 10596 (setting [2]), 256 µg/mL (≈ 588 µM); in the experiment with S. uberis ATCC 19436 (ATCC19436, No Zinc), 128 µg/mL (≈ 294 µM); in the experiment on S. uberis ATCC 19436 (ATCC19436, Zinc (50 μM)) it was 0.125 µg/mL (≈ 0.287 µM); with S. aureus ATCC 6538 (ATCC6538, No Zinc) it was 64 µg/mL (≈ 147 µM); in the experiment with S. aureus ATCC 6538 (ATCC6538, Zinc (50 μM)), 256 µg/mL (≈ 588 µM).

Take `O=S(=O)(Nc1cccc2ccc(CN3CCCCCC3)nc12)c1ccc(C(F)(F)F)cc1` [ZDR408, N-(2-(Azepan-1-ylmethyl)quinolin-8-yl)-4-(trifluoromethyl)benzenesulfonamide]: the MIC in the experiment with E. coli ATCC 10596 (setting [1]) is over 256 µg/mL; with E. coli ATCC 10596 (setting [2]) it was 256 µg/mL (≈ 552 µM); with S. uberis ATCC 19436 (ATCC19436, No Zinc), 32 µg/mL (≈ 69 µM); in the experiment on S. uberis ATCC 19436 (ATCC19436, Zinc (50 μM)), 0.125 µg/mL (≈ 0.27 µM); in the experiment on S. aureus ATCC 6538 (ATCC6538, No Zinc) it was 64 µg/mL (≈ 138 µM); in the experiment on S. aureus ATCC 6538 (ATCC6538, Zinc (50 μM)), 256 µg/mL (≈ 552 µM).

On to `CCCN(CCC)Cc1ccc2cccc(NS(=O)(=O)c3ccc(C(F)(F)F)cc3)c2n1` [ZDR409, N-(2-((Dipropylamino)methyl)quinolin-8-yl)-4-(trifluoromethyl)benzenesulfonamide], for which the MIC was over 256 µg/mL in the experiment on E. coli ATCC 10596 (setting [1]); over 256 µg/mL in the experiment with E. coli ATCC 10596 (setting [2]); 256 µg/mL (≈ 550 µM) in the experiment with S. uberis ATCC 19436 (ATCC19436, No Zinc); 0.125 µg/mL (≈ 0.269 µM) in the experiment on S. uberis ATCC 19436 (ATCC19436, Zinc (50 μM)); 64 µg/mL (≈ 137 µM) in the experiment with S. aureus ATCC 6538 (ATCC6538, No Zinc); 256 µg/mL (≈ 550 µM) in the experiment on S. aureus ATCC 6538 (ATCC6538, Zinc (50 μM)).

Turning to `C=CS(=O)(=O)Nc1cccc2ccc(CN(C)C)nc12` [ZDR500, N-(2-((Dimethylamino)methyl)quinolin-8-yl)ethenesulfonamide], the MIC is over 256 µg/mL in the experiment with E. coli ATCC 10596 (setting [1]); over 256 µg/mL in the experiment on E. coli ATCC 10596 (setting [2]); over 256 µg/mL with S. uberis ATCC 19436 (ATCC19436, No Zinc); 0.5 µg/mL (≈ 1.72 µM) in the experiment with S. uberis ATCC 19436 (ATCC19436, Zinc (50 μM)); 256 µg/mL (≈ 879 µM) with S. aureus ATCC 6538 (ATCC6538, No Zinc); over 256 µg/mL in the experiment on S. aureus ATCC 6538 (ATCC6538, Zinc (50 μM)).

With `Cc1cc(CS(=O)(=O)Nc2cccc3ccc(CN(C)C)nc23)no1` [ZDR501, N-(2-((Dimethylamino)methyl)quinolin-8-yl)-1-(5-methylisoxazol-3-yl)methanesulfonamide], the MIC in the experiment on E. coli ATCC 10596 (setting [1]) is over 256 µg/mL; in the experiment with E. coli ATCC 10596 (setting [2]), over 256 µg/mL; in the experiment on S. uberis ATCC 19436 (ATCC19436, No Zinc), over 256 µg/mL; in the experiment on S. uberis ATCC 19436 (ATCC19436, Zinc (50 μM)) it was 0.25 µg/mL (≈ 0.694 µM); in the experiment on S. aureus ATCC 6538 (ATCC6538, No Zinc), 256 µg/mL (≈ 710 µM); in the experiment with S. aureus ATCC 6538 (ATCC6538, Zinc (50 μM)) it was over 256 µg/mL.

Consider `CN(C)Cc1ccc2cccc(NS(=O)(=O)C3CCOCC3)c2n1` [ZDR502, N-(2-((Dimethylamino)methyl)quinolin-8-yl)tetrahydro-2H-pyran-4-sulfonamide], for which the minimal inhibitory concentration (MIC) with E. coli ATCC 10596 (setting [1]) was over 256 µg/mL; with E. coli ATCC 10596 (setting [2]) it was over 256 µg/mL; in the experiment with S. uberis ATCC 19436 (ATCC19436, No Zinc) it was over 256 µg/mL; in the experiment on S. uberis ATCC 19436 (ATCC19436, Zinc (50 μM)), 0.25 µg/mL (≈ 0.715 µM); in the experiment on S. aureus ATCC 6538 (ATCC6538, No Zinc), over 256 µg/mL; in the experiment with S. aureus ATCC 6538 (ATCC6538, Zinc (50 μM)) it was over 256 µg/mL.

In the case of `CN(C)Cc1ccc2cccc(NS(=O)(=O)CC3CC3)c2n1` [ZDR503, 1-Cyclopropyl-N-(2-((dimethylamino)methyl)quinolin-8-yl)methanesulfonamide], the MIC in the experiment with E. coli ATCC 10596 (setting [1]) was over 256 µg/mL; in the experiment on E. coli ATCC 10596 (setting [2]) it was over 256 µg/mL; with S. uberis ATCC 19436 (ATCC19436, No Zinc), over 256 µg/mL; in the experiment with S. uberis ATCC 19436 (ATCC19436, Zinc (50 μM)), 0.125 µg/mL (≈ 0.391 µM); in the experiment with S. aureus ATCC 6538 (ATCC6538, No Zinc) it was over 256 µg/mL; in the experiment with S. aureus ATCC 6538 (ATCC6538, Zinc (50 μM)) it was 256 µg/mL (≈ 801 µM).

`CN(C)Cc1ccc2cccc(NS(=O)(=O)CC3CCOCC3)c2n1` [ZDR504, N-(2-((Dimethylamino)methyl)quinolin-8-yl)-1-(tetrahydro-2H-pyran-4-yl)methanesulfonamide]: the minimum inhibitory concentration (MIC) with E. coli ATCC 10596 (setting [1]) is over 256 µg/mL; in the experiment on E. coli ATCC 10596 (setting [2]), over 256 µg/mL; in the experiment on S. uberis ATCC 19436 (ATCC19436, No Zinc) it was over 256 µg/mL; in the experiment on S. uberis ATCC 19436 (ATCC19436, Zinc (50 μM)), 0.5 µg/mL (≈ 1.38 µM); with S. aureus ATCC 6538 (ATCC6538, No Zinc) it was over 256 µg/mL; in the experiment on S. aureus ATCC 6538 (ATCC6538, Zinc (50 μM)) it was 256 µg/mL (≈ 704 µM).

Take `CN(C)Cc1ccc2cccc(NS(=O)(=O)Cc3ccc(Cl)nc3)c2n1` [ZDR505, 1-(6-Chloropyridin-3-yl)-N-(2-((dimethylamino)methyl)quinolin-8-yl)methanesulfonamide]: the MIC is over 256 µg/mL in the experiment with E. coli ATCC 10596 (setting [1]); over 256 µg/mL with E. coli ATCC 10596 (setting [2]); over 256 µg/mL in the experiment with S. uberis ATCC 19436 (ATCC19436, No Zinc); 0.25 µg/mL (≈ 0.64 µM) in the experiment with S. uberis ATCC 19436 (ATCC19436, Zinc (50 μM)); over 256 µg/mL in the experiment on S. aureus ATCC 6538 (ATCC6538, No Zinc); 256 µg/mL (≈ 655 µM) with S. aureus ATCC 6538 (ATCC6538, Zinc (50 μM)).

`C#CCS(=O)(=O)Nc1cccc2ccc(CN(C)C)nc12` [ZDR506, N-(2-((Dimethylamino)methyl)quinolin-8-yl)prop-2-yne-1-sulfonamide]: the MIC in the experiment on E. coli ATCC 10596 (setting [1]) is over 256 µg/mL; with E. coli ATCC 10596 (setting [2]) it was over 256 µg/mL; with S. uberis ATCC 19436 (ATCC19436, No Zinc), 256 µg/mL (≈ 844 µM); in the experiment on S. uberis ATCC 19436 (ATCC19436, Zinc (50 μM)), 2 µg/mL (≈ 6.59 µM); with S. aureus ATCC 6538 (ATCC6538, No Zinc), over 256 µg/mL; in the experiment on S. aureus ATCC 6538 (ATCC6538, Zinc (50 μM)) it was over 256 µg/mL.
